Each block holds one compound with its values, some of them ahead of it.
Experiments:
NCI-H460 [1] = test: Induction of apoptosis in human NCI-H460 cells assessed as […] cells at 0.8 uM incubated for 48 hrs by Annexin V-FITC/PI staining based flow cytometry (reference value: 4.31 to 4.76 %); assay type: functional
Huh-7 = test: Anticancer activity against human Huh-7 cells incubated for 48 hrs by MTT assay; assay type: functional, cell-based; settings: Huh-7, 48 h
Calu-1 = test: Anticancer activity against human Calu-1 cells incubated for 48 hrs by MTT assay; assay type: functional, cell-based; settings: Calu-1, 48 h
NCI-H460 [2] = test: Induction of apoptosis in human NCI-H460 cells assessed as necrotic cells at 0.8 uM incubated for 48 hrs by Annexin V-FITC/PI staining based flow cytometry (reference value: 0.02 to 0.06 %); assay type: functional
[3] = Selectivity index, ratio of IC50 for human MCF-10A cells to IC50 for human SK-BR-3 cells; assay type: toxicity; settings: MCF-10A cells versus SK-BR-3 cells, read-out: Ratio IC50
NCI-H460 [4] = test: Induction of apoptosis in human NCI-H460 cells assessed as total apoptotic cells at 8 uM incubated for 48 hrs by Annexin V-FITC/PI staining based flow cytometry (reference value: 6.85 %); assay type: functional
NCI-H460 [5] = test: Induction of apoptosis in human NCI-H460 cells assessed as viable cells at 0.8 uM incubated for 48 hrs by Annexin V-FITC/PI staining based flow cytometry (reference value: 92.82 to 93.46 %); assay type: functional; settings: read-out: Activity
SK-BR-3 = test: Anticancer activity against human SK-BR-3 cells incubated for 48 hrs by MTT assay; assay type: functional, cell-based; settings: SK-BR-3, 48 h
NCI-H460 [6] = test: Induction of apoptosis in human NCI-H460 cells assessed as […] cells at 0.8 uM incubated for 48 hrs by Annexin V-FITC/PI staining based flow cytometry (reference value: 2.17 to 2.38 %); assay type: functional
[7] = Cytotoxicity against human KGN cells incubated for 48 hrs by MTT assay; assay type: toxicity, cell-based
A549 = test: Anticancer activity against human A549 cells incubated for 48 hrs by MTT assay; assay type: functional, cell-based; settings: A549, 48 h
NCI-H460 [8] = test: Induction of apoptosis in human NCI-H460 cells assessed as […] cells at 8 uM incubated for 48 hrs by Annexin V-FITC/PI staining based flow cytometry (reference value: 2.17 to 2.38 %); assay type: functional
[9] = Cytotoxicity against human WI-38 cells incubated for 48 hrs by MTT assay; assay type: toxicity, cell-based
NCI-H460 [10] = test: Induction of apoptosis in human NCI-H460 cells assessed as […] cells at 80 uM incubated for 48 hrs by Annexin V-FITC/PI staining based flow cytometry (reference value: 4.31 to 4.76 %); assay type: functional
NCI-H460 [11] = test: Induction of apoptosis in human NCI-H460 cells assessed as total apoptotic cells at 80 uM incubated for 48 hrs by Annexin V-FITC/PI staining based flow cytometry (reference value: 6.85 %); assay type: functional
HCT-116 = test: Anticancer activity against human HCT-116 cells incubated for 48 hrs by MTT assay; assay type: functional, cell-based; settings: HCT-116, 48 h
[12] = Selectivity index, ratio of IC50 for human WI-38 cells to IC50 for human H460 cells; assay type: toxicity; settings: WI-38 cells versus H460 cells, read-out: Ratio IC50
NCI-H460 [13] = test: Induction of apoptosis in human NCI-H460 cells assessed as viable cells at 80 uM incubated for 48 hrs by Annexin V-FITC/PI staining based flow cytometry (reference value: 92.82 to 93.46 %); assay type: functional; settings: read-out: Activity
[14] = Cytotoxicity against human MCF-10A cells incubated for 48 hrs by MTT assay; assay type: toxicity, cell-based
HeLa = test: Anticancer activity against human HeLa cells incubated for 48 hrs by MTT assay; assay type: functional, cell-based
PC-9 = test: Anticancer activity against human PC-9 cells incubated for 48 hrs by MTT assay; assay type: functional, cell-based; settings: PC-9, 48 h
NCI-H460 [15] = test: Induction of apoptosis in human NCI-H460 cells assessed as […] cells at 8 uM incubated for 48 hrs by Annexin V-FITC/PI staining based flow cytometry (reference value: 4.31 to 4.76 %); assay type: functional
NCI-H460 [16] = test: Induction of apoptosis in human NCI-H460 cells assessed as necrotic cells at 8 uM incubated for 48 hrs by Annexin V-FITC/PI staining based flow cytometry (reference value: 0.02 to 0.06 %); assay type: functional
NCI-H460 [17] = test: Induction of apoptosis in human NCI-H460 cells assessed as necrotic cells at 80 uM incubated for 48 hrs by Annexin V-FITC/PI staining based flow cytometry (reference value: 0.02 to 0.06 %); assay type: functional
[18] = Cytotoxicity against human HEK-293T cells incubated for 48 hrs by MTT assay; assay type: toxicity, cell-based
NCI-H460 [19] = test: Anticancer activity against human NCI-H460 cells incubated for 48 hrs by MTT assay; assay type: functional, cell-based; settings: NCI-H460, 48 h
786-0 = test: Anticancer activity against human 786-0 cells incubated for 48 hrs by MTT assay; assay type: functional, cell-based; settings: 786-0, 48 h
NCI-H460 [20] = test: Induction of apoptosis in human NCI-H460 cells assessed as […] cells at 80 uM incubated for 48 hrs by Annexin V-FITC/PI staining based flow cytometry (reference value: 2.17 to 2.38 %); assay type: functional
NCI-H460 [21] = test: Induction of apoptosis in human NCI-H460 cells assessed as total apoptotic cells at 0.8 uM incubated for 48 hrs by Annexin V-FITC/PI staining based flow cytometry (reference value: 6.85 %); assay type: functional
[22] = Selectivity index, ratio of IC50 for human WI-38 cells to IC50 for human A549 cells; assay type: toxicity; settings: WI-38 cells versus A549 cells, read-out: Ratio IC50
SK-OV-3 = test: Anticancer activity against human SK-OV-3 cells incubated for 48 hrs by MTT assay; assay type: functional, cell-based; settings: SK-OV-3, 48 h
NCI-H460 [23] = test: Induction of apoptosis in human NCI-H460 cells assessed as viable cells at 8 uM incubated for 48 hrs by Annexin V-FITC/PI staining based flow cytometry (reference value: 92.82 to 93.46 %); assay type: functional; settings: read-out: Activity
[24] = Selectivity index, ratio of IC50 for human WI-38 cells to IC50 for human Calu-1 cells; assay type: toxicity; settings: WI-38 cells versus Calu-1 cells, read-out: Ratio IC50

IC50 (A549): 117 µM
Compound: CC(C)[C@@H]1CC[C@@H](C)C[C@H]1O[C@H]1OC(=O)C(Br)=C1N1CCN(C(=O)c2cc(O)c3c(c2)C(=O)c2cccc(O)c2C3=O)CC1
IC50 at 48 h [9]: 167 µM
selectivity ratio [22]: 1

IC50 (A549): 106 µM
Compound: CC1(C)C2CCC1(C)[C@H](OC1OC(=O)C(Cl)=C1N1CCN(C(=O)c3cc(O)c4c(c3)C(=O)c3cccc(O)c3C4=O)CC1)C2 (some centres undefined)
IC50 at 48 h [9]: 173 µM
selectivity ratio [22]: 2

IC50 (A549): 112 µM
Compound: CC1(C)C2CCC1(C)[C@H](OC1OC(=O)C(Br)=C1N1CCN(C(=O)c3cc(O)c4c(c3)C(=O)c3cccc(O)c3C4=O)CC1)C2 (some centres undefined)
IC50 at 48 h [9]: 152 µM
selectivity ratio [22]: 1

IC50 (A549): 266 µM
Compound: O=C(O)c1cc(O)c2c(c1)C(=O)c1cccc(O)c1C2=O [RHEIN]
selectivity ratio [22]: 1

The remaining lines, values behind:

Compound: COC1OC(=O)C(Cl)=C1N1CCN(C(=O)c2cc(OC(C)=O)c3c(c2)C(=O)c2cccc(OC(C)=O)c2C3=O)CC1 (centres undefined)
Activity (NCI-H460 [1]): 5.09%
IC50 (Huh-7): 21 µM
IC50 (Calu-1): 15.4 µM
Activity (NCI-H460 [2]): 0.12%
selectivity ratio [3]: 1
Activity (NCI-H460 [4]): 37.72%
viability at 0.8 µM (NCI-H460 [5]): 89.5%
IC50 (SK-BR-3): 19.1 µM
Activity (NCI-H460 [6]): 3.49%
IC50 at 48 h [7]: 76.4 µM
IC50 (A549): 5.74 µM
Activity (NCI-H460 [8]): 18.88%
IC50 at 48 h [9]: 69.3 µM
Activity (NCI-H460 [10]): 25.81%
Activity (NCI-H460 [11]): 56.57%
IC50 (HCT-116): 13.8 µM
selectivity ratio [12]: 16
viability at 80 µM (NCI-H460 [13]): 42.6%
IC50 at 48 h [14]: 17 µM
IC50 (HeLa): 30.5 µM
IC50 (PC-9): 5.78 µM
Activity (NCI-H460 [15]): 18.14%
Activity (NCI-H460 [16]): 0.06%
Activity (NCI-H460 [17]): 0.07%
IC50 at 48 h [18]: 9.15 µM
IC50 (NCI-H460 [19]): 4.35 µM
IC50 (786-0): 20.7 µM
Activity (NCI-H460 [20]): 29.91%
Activity (NCI-H460 [21]): 9.38%
selectivity ratio [22]: 12
IC50 (SK-OV-3): 60.5 µM
viability at 8 µM (NCI-H460 [23]): 61.1%
selectivity ratio [24]: 5

Compound: CC(=O)Oc1cccc2c1C(=O)c1c(OC(C)=O)cc(C(=O)N3CCN(C4=C(Br)C(=O)O[C@@H]4O[C@@H]4C[C@H](C)CC[C@H]4C(C)C)CC3)cc1C2=O
IC50 (A549): 46.9 µM
IC50 at 48 h [9]: 24.9 µM
selectivity ratio [22]: 1

Compound: CC(=O)Oc1cccc2c1C(=O)c1c(OC(C)=O)cc(C(=O)N3CCN(C4=C(Br)C(=O)OC4O[C@@H]4CC5CCC4(C)C5(C)C)CC3)cc1C2=O (some centres undefined)
IC50 (A549): 86.7 µM
IC50 at 48 h [9]: 43.1 µM
selectivity ratio [22]: 1

Compound: CC(C)[C@@H]1CC[C@@H](C)C[C@H]1O[C@H]1OC(=O)C(Cl)=C1N1CCN(C(=O)c2cc(O)c3c(c2)C(=O)c2cccc(O)c2C3=O)CC1
IC50 (A549): 46.5 µM
IC50 at 48 h [9]: 296 µM
selectivity ratio [22]: 6

Compound: CC(=O)Oc1cccc2c1C(=O)c1c(OC(C)=O)cc(C(=O)N3CCN(C4=C(Cl)C(=O)OC4O[C@@H]4CC5CCC4(C)C5(C)C)CC3)cc1C2=O (some centres undefined)
IC50 (A549): 69.1 µM
IC50 at 48 h [9]: 34.7 µM
selectivity ratio [22]: 1

Compound: COC1OC(=O)C(Br)=C1N1CCN(C(=O)c2cc(OC(C)=O)c3c(c2)C(=O)c2cccc(OC(C)=O)c2C3=O)CC1 (centres undefined)
IC50 (A549): 5.49 µM
IC50 at 48 h [9]: 39.1 µM
selectivity ratio [22]: 7

Compound: CC(=O)Oc1cccc2c1C(=O)c1c(OC(C)=O)cc(C(=O)N3CCN(C4=C(Cl)C(=O)O[C@@H]4O[C@@H]4C[C@H](C)CC[C@H]4C(C)C)CC3)cc1C2=O
IC50 (A549): 115 µM
IC50 at 48 h [9]: 66.3 µM
selectivity ratio [22]: 1

Compound: Nc1ccn([C@@H]2O[C@H](CO)[C@@H](O)[C@@H]2O)c(=O)n1 [CYTARABINE]
IC50 at 48 h [9]: 493 µM
selectivity ratio [22]: 2

Source: ChEMBL document CHEMBL5344481, “Design, synthesis and biological evaluation of rhein-piperazine-furanone hybrids as potential anticancer agents” (RSC Med Chem, 2024)
